Where “and” joins values, the source holds several entries; their conditions need not be identical. Equal entries are not always repeated. Values belong to the molecule of their own block, whether it stands above or below them.
Legend:
[1] = clinical studies; cited from earlier work
rabbits [2] = settings: 30 mg/kg; cited from earlier work
rabbits [3] = settings: rabbits with severe hypercholesterolemia; cited from earlier work
CETP = target: T1, CETP (Homo sapiens, UniProt P11597); test: CETP in vitro assay ([3H]CE-HDL transfer, Amersham kit TRKQ7005; modified protocol in human plasma); assay type: biochemical; settings: multiple values = multiple measurements; for inhibition at 1 µM / % Inhibition @ 1 μM: 1 μM compound
T1 construct: from tissue; host or cells: human plasma from normal volunteers
T1 sequence (P11597 18-493): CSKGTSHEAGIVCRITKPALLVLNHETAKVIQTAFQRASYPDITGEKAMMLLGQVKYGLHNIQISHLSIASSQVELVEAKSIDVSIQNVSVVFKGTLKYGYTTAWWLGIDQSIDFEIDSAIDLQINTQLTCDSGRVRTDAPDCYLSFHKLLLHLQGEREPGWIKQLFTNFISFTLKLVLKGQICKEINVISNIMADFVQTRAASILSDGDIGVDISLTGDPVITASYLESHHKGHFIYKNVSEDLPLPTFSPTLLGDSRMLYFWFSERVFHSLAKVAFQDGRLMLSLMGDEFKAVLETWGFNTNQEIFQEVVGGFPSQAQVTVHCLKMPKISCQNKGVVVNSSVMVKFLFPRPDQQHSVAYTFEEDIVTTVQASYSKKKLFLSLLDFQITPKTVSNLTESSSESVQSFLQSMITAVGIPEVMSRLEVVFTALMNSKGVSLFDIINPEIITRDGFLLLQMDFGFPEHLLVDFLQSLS
Summary of the method: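 Normal-volunteer human plasma was incubated ≥4 hr at 37 °C with approx. 25 μg/ml [3H]CE-HDL and compound in DMSO, with a 4 °C blank for non-specific transfer. HDL was separated by Dextralip/MgCl2 precipitation and centrifugation, then supernatant radioactivity counted. IC50 came from % control versus concentration.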

cholesterol-fed hamsters = test: CETP in vivo assay: lipid parameters in cholesterol-fed hamsters; design: species or system hamster; settings: plasma, mean ± SEM
Procedure: To determine the in vivo efficacy of a test compound, hamsters are first fed a moderately high cholesterol diet (Research Diets, D5012801) for two weeks before commencing treatment. The animals are orally gavaged with the vehicle (10% solutol, 5% ethanol, 85% D5W) and test compound for 5 days with the last dose being administered 2 hrs before sacrifice. Plasma is obtained and lipid parameters (HDL-C, LDL-C, Total Cholesterol, Triglycerides) are measured.

Structure (SMILES): CCC(CC)CC1(C(=O)Nc2ccccc2SC(=O)C(C)C)CCCCC1 [JTT-705]
HDL-C [1]: raise HDL-C | LDL-C [1]: modestly lower LDL-C | triglyceride levels [1]: not alter triglyceride levels | CETP activity (rabbits [2]): inhibited CETP activity | change of HDL-C (rabbits [2]): +90% | change of lesion size (rabbits [2]): −70% | change of non-HDL-C cholesterol (rabbits [2]): −50% | plasma triglycerides (rabbits [3]): significant elevations of plasma triglycerides | prevention of lesion development (rabbits [3]): not efficacious in preventing lesion development

inhibition at 1 µM (CETP): 91% | IC50 (CETP): 26 nM
Structure (SMILES): O[C@@H](CN1c2cccc(-c3cccc(OC(F)(F)F)c3)c2OC[C@@H]1c1cccc(OC(F)(F)C(F)F)c1)C(F)(F)F [Compound 3, 4H-1,4-Benzoxazine-4-ethanol, 2,3-dihydro-3-[3-(1,1,2,2-tetrafluoroethoxy)phenyl]-8-[3-(trifluoromethoxy)phenyl]-α-(trifluoromethyl)-, (3S,αS)—]
HDL (cholesterol-fed hamsters; 3 mg/kg oral gavage 5 days): 136 ± 6 mg/dL | HDL-C/LDL Ratio (cholesterol-fed hamsters; 3 mg/kg oral gavage 5 days): 3.7 ± 0.2 | LDL (cholesterol-fed hamsters; 3 mg/kg oral gavage 5 days): 36 ± 3 mg/dL | Total Cholesterol (cholesterol-fed hamsters; 3 mg/kg oral gavage 5 days): 207 ± 7 mg/dL | Triglycerides (cholesterol-fed hamsters; 3 mg/kg oral gavage 5 days): 278 ± 21 mg/dL | HDL (cholesterol-fed hamsters; 10 mg/kg oral gavage 5 days): 158 ± 10 mg/dL | HDL-C/LDL Ratio (cholesterol-fed hamsters; 10 mg/kg oral gavage 5 days): 5.2 ± 0.4 | LDL (cholesterol-fed hamsters; 10 mg/kg oral gavage 5 days): 30 ± 2 mg/dL | Total Cholesterol (cholesterol-fed hamsters; 10 mg/kg oral gavage 5 days): 217 ± 12 mg/dL | Triglycerides (cholesterol-fed hamsters; 10 mg/kg oral gavage 5 days): 282 ± 16 mg/dL | HDL (cholesterol-fed hamsters; 30 mg/kg oral gavage 5 days): 167 ± 5 mg/dL | HDL-C/LDL Ratio (cholesterol-fed hamsters; 30 mg/kg oral gavage 5 days): 6.2 ± 0.3 | LDL (cholesterol-fed hamsters; 30 mg/kg oral gavage 5 days): 27 ± 2 mg/dL | Total Cholesterol (cholesterol-fed hamsters; 30 mg/kg oral gavage 5 days): 226 ± 5 mg/dL | Triglycerides (cholesterol-fed hamsters; 30 mg/kg oral gavage 5 days): 300 ± 36 mg/dL

% Inhibition @ 1 μM (CETP): 11%
Structure (SMILES): OC(CN1c2cccc(-c3cccc(OC(F)(F)F)c3)c2OCC1c1ccc(OC(F)(F)C(F)F)cc1)C(F)(F)F (stereo not drawn) [Compound 94, 1,1,1-Trifluoro-3-[3-[4-(1,1,2,2-tetrafluoro-ethoxy)-phenyl]-8-(3-trifluoromethoxy-phenyl)-2,3-dihydro-benzo[1,4]oxazin-4-yl]propan-2-ol]

inhibition at 1 µM (CETP): 20%
Structure (SMILES): CC1(C)OC[C@H](CN2c3cccc(-c4cccc(OC(F)(F)F)c4)c3OC[C@H]2c2cccc(OC(F)(F)C(F)F)c2)O1 [Compound 46, 2H-1,4-Benzoxazine, 4-[[(4S)-2,2-dimethyl-1,3-dioxolan-4-yl]methyl]-3,4-dihydro-3-[3-(1,1,2,2-tetrafluoroethoxy)phenyl]-8-[3-(trifluoromethoxy)phenyl]-, (3R)—]

inhibition at 1 µM (CETP): 25%
Structure (SMILES): CC1(C)OC[C@H](CN2c3cccc(-c4cccc(OC(F)(F)F)c4)c3OC[C@@H]2c2cccc(OC(F)(F)C(F)F)c2)O1 [Compound 45, 2H-1,4-Benzoxazine, 4-[[(4S)-2,2-dimethyl-1,3-dioxolan-4-yl]methyl]-3,4-dihydro-3-[3-(1,1,2,2-tetrafluoroethoxy)phenyl]-8-[3-(trifluoromethoxy)phenyl]-, (3S)—]

% Inhibition @ 1 μM (CETP): 79% and 91% | IC50 (CETP): 127 nM
Structure (SMILES): OC(CF)CN1c2cccc(-c3cccc(OC(F)(F)F)c3)c2OCC1c1cccc(OC(F)(F)C(F)F)c1 (stereo not drawn) [Compound 68, 1-Fluoro-3-[3-[3-(1,1,2,2-tetrafluoro-ethoxy)-phenyl]-8-(3-trifluoromethoxy-phenyl)-2,3-dihydro-benzo[1,4]oxazin-4-yl]-propan-2-ol]

% Inhibition @ 1 μM (CETP): 0%
Structure (SMILES): OC(CN1c2cccc(-c3cccc(OC(F)(F)F)c3)c2OCC1c1ccoc1)C(F)(F)F (stereo not drawn) [Compound 106, 1,1,1-Trifluoro-3-[3-furan-3-yl-8-(3-trifluoromethoxy-phenyl)-2,3-dihydro-benzo[1,4]oxazin-4-yl]-propan-2-ol]

% Inhibition @ 1 μM (CETP): 0%
Structure (SMILES): OC(CN1c2cccc(-c3cccc(OC(F)(F)F)c3)c2OCC1c1cccc(Cl)c1)C(F)(F)F (stereo not drawn) [Compound 102, 3-[3-(3-Chloro-phenyl)-8-(3-trifluoromethoxy-phenyl)-2,3-dihydro-benzo[1,4]oxazin-4-yl]-1,1,1-trifluoro-propan-2-ol]
